Experimental data from ChEMBL document CHEMBL1201862, “PubChem BioAssay data set” (2004).
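Where inhibition never reached the appropriate level, the endpoint shown equals the highest concentration tested. Otherwise, values were interpolated linearly from a five-concentration, 48-hour dose response in 96-well plates. Abbreviation: GI50, concentration required for 50% inhibition of growth.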 Calls of active or inactive are those of the source. No stated cut-off is given here; in the data, active = GI50 up to about 1.1 µM and inactive = higher.

Key:
Assay in all cases: NCI anticancer screen, dose series, 48 h
SK-MEL-2 = test system: SK-MEL-2
U-251 = test system: U-251
SK-MEL-28 = test system: SK-MEL-28
MOLT-4 = test system: MOLT-4
TK-10 = test system: TK-10
UACC-257 = test system: UACC-257
MCF7 = test system: MCF7
HT-29 = test system: HT-29
SNB-75 = test system: SNB-75
SK-MEL-5 = test system: SK-MEL-5
PC-3 = test system: PC-3
Hs-578T = test system: Hs-578T
UACC-62 = test system: UACC-62
HCT-116 = test system: HCT-116
SW-620 = test system: SW-620
KM12 = test system: KM12
CCRF-CEM = test system: CCRF-CEM
MDA-MB-231 = test system: MDA-MB-231
RXF 393 = test system: RXF 393
T47D = test system: T47D
SR = test system: SR
SF-268 = test system: SF-268
NCI-H23 = test system: NCI-H23
MDA-MB-435 = test system: MDA-MB-435
A549 = test system: A549
NCI/ADR-RES = test system: NCI/ADR-RES
HOP-92 = test system: HOP-92
BT-549 = test system: BT-549
MDA-N = test system: MDA-N
OVCAR-5 = test system: OVCAR-5
SNB-19 = test system: SNB-19
SF-539 = test system: SF-539
RPMI-8226 = test system: RPMI-8226
DU-145 = test system: DU-145
HL-60 = test system: HL-60
SN12C = test system: SN12C
NCI-H460 = test system: NCI-H460
HOP-62 = test system: HOP-62
LOX IMVI = test system: LOX IMVI
OVCAR-3 = test system: OVCAR-3
SK-OV-3 = test system: SK-OV-3
IGROV-1 = test system: IGROV-1
CAKI-1 = test system: CAKI-1
M14 = test system: M14
786-0 = test system: 786-0
Malme-3M = test system: Malme-3M
UO-31 = test system: UO-31
HCT-15 = test system: HCT-15
SF-295 = test system: SF-295
K562 = test system: K562
ACHN = test system: ACHN
HCC 2998 = test system: HCC 2998
OVCAR-4 = test system: OVCAR-4
NCI-H226 = test system: NCI-H226
EKVX = test system: EKVX
A498 = test system: A498
NCI-H522 = test system: NCI-H522
OVCAR-8 = test system: OVCAR-8
COLO 205 = test system: COLO 205

Measured: GI50

CCOC(=O)c1c(-c2ccc(OC)cc2)c(C#N)c(=S)n(C2OC(COC(C)=O)C(OC(C)=O)C(OC(C)=O)C2OC(C)=O)c1-c1ccccc1 (stereo not given)
> 100 µM: HCT-15
inactive: SK-MEL-2 > 100 µM | U-251 > 100 µM | SK-MEL-28 > 100 µM | MOLT-4 > 100 µM | TK-10 > 100 µM | UACC-257 > 100 µM | MCF7 > 100 µM | HT-29 > 100 µM | SNB-75 60 µM | SK-MEL-5 40.6 µM | PC-3 > 100 µM | Hs-578T 29.9 µM | UACC-62 > 100 µM | HCT-116 > 100 µM | SW-620 > 100 µM | KM12 > 100 µM | CCRF-CEM > 100 µM | MDA-MB-231 > 100 µM | RXF 393 > 100 µM | T47D > 100 µM | SR > 100 µM | SF-268 > 100 µM | NCI-H23 > 100 µM | MDA-MB-435 > 100 µM | A549 > 100 µM | NCI/ADR-RES > 100 µM | HOP-92 17.8 µM | BT-549 > 100 µM | MDA-N > 100 µM | OVCAR-5 > 100 µM | SNB-19 > 100 µM | SF-539 > 100 µM | RPMI-8226 > 100 µM | DU-145 > 100 µM | HL-60 > 100 µM | SN12C > 100 µM | NCI-H460 > 100 µM | HOP-62 > 100 µM | LOX IMVI > 100 µM | OVCAR-3 > 100 µM | SK-OV-3 > 100 µM | IGROV-1 > 100 µM | CAKI-1 > 100 µM | M14 > 100 µM | 786-0 > 100 µM | Malme-3M > 100 µM | UO-31 > 100 µM | SF-295 > 100 µM | K562 > 100 µM | ACHN > 100 µM | HCC 2998 > 100 µM | OVCAR-4 > 100 µM

Brc1cccc(C2ON=C(c3ccccc3)N2C23CC4CC(CC(C4)C2)C3)c1 (stereo not given)
inactive: NCI-H226 > 10 µM | EKVX > 10 µM | SK-MEL-2 > 10 µM | U-251 > 10 µM | SK-MEL-28 > 10 µM | MOLT-4 > 10 µM | TK-10 > 10 µM | UACC-257 > 10 µM | MCF7 > 10 µM | HT-29 > 10 µM | SNB-75 6.19 µM | A498 > 10 µM | SK-MEL-5 > 10 µM | PC-3 > 10 µM | Hs-578T > 10 µM | UACC-62 > 10 µM | NCI-H522 > 10 µM | HCT-116 > 10 µM | SW-620 > 10 µM | KM12 > 10 µM | CCRF-CEM > 10 µM | MDA-MB-231 > 10 µM | RXF 393 > 10 µM | T47D > 10 µM | SF-268 > 10 µM | NCI-H23 > 10 µM | MDA-MB-435 > 10 µM | A549 > 10 µM | OVCAR-8 > 10 µM | NCI/ADR-RES > 10 µM | HOP-92 5.42 µM | BT-549 > 10 µM | MDA-N > 10 µM | OVCAR-5 > 10 µM | SNB-19 > 10 µM | SF-539 > 10 µM | RPMI-8226 > 10 µM | DU-145 > 10 µM | SN12C > 10 µM | NCI-H460 > 10 µM | HOP-62 > 10 µM | LOX IMVI > 10 µM | OVCAR-3 > 10 µM | SK-OV-3 > 10 µM | IGROV-1 > 10 µM | CAKI-1 > 10 µM | M14 > 10 µM | 786-0 > 10 µM | Malme-3M > 10 µM | UO-31 > 10 µM | SF-295 > 10 µM | K562 > 10 µM | ACHN > 10 µM | HCC 2998 > 10 µM | COLO 205 > 10 µM | OVCAR-4 > 10 µM
> 10 µM: HCT-15
